Here are results for 29 compounds from US20190345138A1, “HETEROCYCLIC AMIDES AS KINASE INHIBITORS” (GlaxoSmithKline Intellectual Property Development Limited, priority 2016, published 2019).

Where “and” joins values, the source holds several entries; their conditions need not be identical. Equal entries are not always repeated.

For the first experiment, the system named is human monocytic leukemia U937 cells. In words: necroptosis assay in U937 cells. The experiment is classed as cell-based. As to conditions: Homo sapiens, U-937, U937 cells; viability by cellular ATP (Cell Titer-Glo); read-out: pIC50, inhibited necrosis in U937 cells (converted). As for the experimental part:
The efficacy of RIP1 inhibitors can be tested […] in vitro using a human monocytic leukemia U937 or mouse L929 fibrosarcoma cells in a necroptosis assay. As determined using the method described in S. He et al., Cell, 137(6):1100-1111 (2009) and International Patent Appln. No. PCT/IB2014/059004, now, International Patent Appln. Pub.
Viability was measured by quantitating cellular levels of ATP using the Cell Titer-Glo kit. All data are means±standard deviation of the mean.
As to `O=C(C1CCN(c2ncc3[nH]cnc3n2)CC1)N1N=CC[C@H]1c1cc(F)cc(F)c1` [Example 139, (S)-(1-(7H-purin-2-yl)piperidin-4-yl)(5-(3,5-difluorophenyl)-4,5-dihydro-1H-pyrazol-1-yl)methanone], the IC50 was 1 to 100 nM.

With `CNc1ccnc(N2CCC(C(=O)N3N=CC[C@H]3c3ccccc3)CC2)n1` [Example 16, (S)-(1-(4-(methylamino)pyrimidin-2-yl)piperidin-4-yl)(5-phenyl-4,5-dihydro-1H-pyrazol-1-yl)methanone], the IC50 is 1 to 100 nM.

On to `N#Cc1ccc(N2CCC(C(=O)N3N=CC[C@H]3c3cc(F)cc(F)c3)CC2)nn1` [Example 94, (S)-6-(4-(5-(3,5-difluorophenyl)-4,5-dihydro-1H-pyrazole-1-carbonyl)piperidin-1-yl)pyridazine-3-carbonitrile], for which the IC50 was 1 to 100 nM.

Turning to `N#Cc1csc(N2CCC(C(=O)N3N=CC[C@H]3c3ccccc3)CC2)n1` [Example 53, (S)-2-(4-(5-phenyl-4,5-dihydro-1H-pyrazole-1-carbonyl)piperidin-1-yl)thiazole-4-carbonitrile], the IC50 was 1 to 100 nM.

Take `O=C1NCCC1c1nc(N2CCC(C(=O)N3N=CC[C@H]3c3cncc(F)c3)CC2)ncc1F` (stereo partly drawn) [Example 151, 3-(5-fluoro-2-(4-((S)-5-(5-fluoropyridin-3-yl)-4,5-dihydro-1H-pyrazole-1-carbonyl)piperidin-1-yl)pyrimidin-4-yl)pyrrolidin-2-one]: the IC50 was 1 to 100 nM.

For the compound `O=C(C1CCN(c2nccc(-c3ccccc3)n2)CC1)N1N=CCC1c1ccccc1` (racemic) [Example 4, (5-phenyl-4,5-dihydro-1H-pyrazol-1-yl)(1-(4-phenylpyrimidin-2-yl)piperidin-4-yl)methanone], the IC50 was 1 to 100 nM.

Turning to `N#Cc1cc(N2CCC(C(=O)N3N=CC[C@H]3c3cncc(F)c3)CC2)ncn1` [Example 111, (S)-6-(4-(5-(5-fluoropyridin-3-yl)-4,5-dihydro-1H-pyrazole-1-carbonyl)piperidin-1-yl)pyrimidine-4-carbonitrile], the IC50 was 1 to 100 nM.

Regarding `NC(=O)c1ncnc(N2CCC(C(=O)N3N=CC[C@H]3c3cncc(F)c3)CC2)c1F` [Example 160, (S)-5-fluoro-6-(4-(5-(5-fluoropyridin-3-yl)-4,5-dihydro-1H-pyrazole-1-carbonyl)piperidin-1-yl)pyrimidine-4-carboxamide], the IC50 is 1 to 100 nM.

For `Cc1nnc(-c2cc(N3CCC(C(=O)N4N=CC[C@H]4c4ccccc4)CC3)ncn2)o1` [Example 129, (S)-(1-(6-(5-methyl-1,3,4-oxadiazol-2-yl)pyrimidin-4-yl)piperidin-4-yl)(5-phenyl-4,5-dihydro-1H-pyrazol-1-yl)methanone], the IC50 is 1 to 100 nM.

Take `N#Cc1ccnc(N2CCC(C(=O)N3N=CCC3c3ccccc3)CC2)n1` (racemic) [Example 5, 2-(4-(5-phenyl-4,5-dihydro-1H-pyrazole-1-carbonyl)piperidin-1-yl)pyrimidine-4-carbonitrile]: the IC50 was 1 to 100 nM.

Regarding `N#Cc1cnc(N2CCC(C(=O)N3N=CC[C@H]3c3cc(F)cc(F)c3)CC2)cn1` [Example 95, (S)-5-(4-(5-(3,5-difluorophenyl)-4,5-dihydro-1H-pyrazole-1-carbonyl)piperidin-1-yl)pyrazine-2-carbonitrile], the IC50 was 1 to 100 nM.

`O=C(NC1CC1)c1ccnc(N2CCC(C(=O)N3N=CC[C@H]3c3ccccc3)CC2)n1` [Example 125, (S)—N-cyclopropyl-2-(4-(5-phenyl-4,5-dihydro-1H-pyrazole-1-carbonyl)piperidin-1-yl)pyrimidine-4-carboxamide]: the IC50 is 1 to 100 nM.

For another experiment, the target named is T1, RIP1 kinase (Homo sapiens, UniProt Q13546).
T1 sequence (Q13546 1-375 limits assumed): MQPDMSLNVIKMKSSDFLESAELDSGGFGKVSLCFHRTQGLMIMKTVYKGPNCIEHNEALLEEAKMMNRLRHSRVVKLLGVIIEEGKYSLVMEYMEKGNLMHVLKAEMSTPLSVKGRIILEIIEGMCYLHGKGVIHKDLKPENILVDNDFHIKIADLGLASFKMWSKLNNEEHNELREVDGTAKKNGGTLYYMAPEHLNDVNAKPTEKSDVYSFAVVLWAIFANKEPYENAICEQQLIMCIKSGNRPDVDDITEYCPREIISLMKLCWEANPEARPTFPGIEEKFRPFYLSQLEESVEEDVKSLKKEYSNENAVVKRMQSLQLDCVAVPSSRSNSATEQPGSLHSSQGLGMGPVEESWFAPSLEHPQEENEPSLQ
In words: fluorescent polarization based binding assay. As to conditions: mean of a minimum of 2 experiments. The source says: A fluorescent polarization based binding assay was used to assess the activity of the compounds of this invention, the details of which are disclosed in International Patent Appln. No. PCT/IB2014/059004, now, International Patent Appln. Pub.
As for `O=C(C1CCN(c2ncc3[nH]cnc3n2)CC1)N1N=CC[C@H]1c1cc(F)cc(F)c1` [Example 139, (S)-(1-(7H-purin-2-yl)piperidin-4-yl)(5-(3,5-difluorophenyl)-4,5-dihydro-1H-pyrazol-1-yl)methanone], the IC50 is 1 to 31.6 nM.

On to `CNc1ccnc(N2CCC(C(=O)N3N=CC[C@H]3c3ccccc3)CC2)n1` [Example 16, (S)-(1-(4-(methylamino)pyrimidin-2-yl)piperidin-4-yl)(5-phenyl-4,5-dihydro-1H-pyrazol-1-yl)methanone], for which the IC50 was 1 to 31.6 nM.

Regarding `N#Cc1csc(N2CCC(C(=O)N3N=CC[C@H]3c3ccccc3)CC2)n1` [Example 53, (S)-2-(4-(5-phenyl-4,5-dihydro-1H-pyrazole-1-carbonyl)piperidin-1-yl)thiazole-4-carbonitrile], the IC50 is 1 to 31.6 nM and 1 to 10 nM.

On to `NC(=O)COc1nc(N2CCC(C(=O)N3N=CC[C@H]3c3ccccc3)CC2)ncc1F` [Example 167, (S)-2-((5-fluoro-2-(4-(5-phenyl-4,5-dihydro-1H-pyrazole-1-carbonyl)piperidin-1-yl)pyrimidin-4-yl)oxy)acetamide], for which the IC50 was 1 to 31.6 nM.

As for `COc1nccc(N2CCC(C(=O)N3N=CC[C@H]3c3cccc(C#N)c3)CC2)n1` [Example 75, (S)-3-(1-(1-(2-methoxypyrimidin-4-yl)piperidine-4-carbonyl)-4,5-dihydro-1H-pyrazol-5-yl)benzonitrile], the IC50 was 1 to 31.6 nM.

Take `O=C1NCC[C@@H]1c1nc(N2CCC(C(=O)N3N=CC[C@H]3c3cncc(F)c3)CC2)ncc1F` [Example 166, (R)-3-(5-fluoro-2-(4-((S)-5-(5-fluoropyridin-3-yl)-4,5-dihydro-1H-pyrazole-1-carbonyl)piperidin-1-yl)pyrimidin-4-yl)pyrrolidin-2-one]: the IC50 was 1 to 31.6 nM.

Compound `CSc1nccc(N2CCC(C(=O)N3N=CC[C@H]3c3cncc(F)c3)CC2)n1` [Example 114, (S)-(5-(5-fluoropyridin-3-yl)-4,5-dihydro-1H-pyrazol-1-yl)(1-(2-(methylthio)pyrimidin-4-yl)piperidin-4-yl)methanone] gave an IC50 of 1 to 31.6 nM.

On to `O=C(C1CCN(c2ccn3nccc3n2)CC1)N1N=CC[C@H]1c1cc(F)cc(F)c1` [Example 90, (S)-(5-(3,5-difluorophenyl)-4,5-dihydro-1H-pyrazol-1-yl)(1-(pyrazolo[1,5-a]pyrimidin-5-yl)piperidin-4-yl)methanone], for which the IC50 was 1 to 31.6 nM and 1 to 10 nM.

On to `NC(=O)c1ccc(N2CCC(C(=O)N3N=CC[C@H]3c3ccccc3)CC2)nc1` [Example 30, (S)-6-(4-(5-phenyl-4,5-dihydro-1H-pyrazole-1-carbonyl)piperidin-1-yl)nicotinamide], for which the IC50 was 1 to 31.6 nM.

`COC(=O)c1cnc(N2CCC(C(=O)N3N=CC[C@H]3c3ccccc3)CC2)nc1` [Example 10, (S)-methyl 2-(4-(5-phenyl-4,5-dihydro-1H-pyrazole-1-carbonyl)piperidin-1-yl)pyrimidine-5-carboxylate] gave an IC50 of 1 to 31.6 nM.

Compound `CC(=O)Nc1cc(N2CCC(C(=O)N3N=CC[C@H]3c3cc(F)cc(F)c3)CC2)ncn1` [Example 120, (S)-N-(6-(4-(5-(3,5-difluorophenyl)-4,5-dihydro-1H-pyrazole-1-carbonyl)piperidin-1-yl)pyrimidin-4-yl)acetamide] gave an IC50 of 1 to 31.6 nM.

Regarding `CCOC(=O)c1cnc(N2CCC(C(=O)N3N=CC[C@H]3c3cc(F)cc(F)c3)CC2)o1` [Example 107, (S)-ethyl 2-(4-(5-(3,5-difluorophenyl)-4,5-dihydro-1H-pyrazole-1-carbonyl)piperidin-1-yl)oxazole-5-carboxylate], the IC50 is 1 to 31.6 nM.

`CCOC(=O)c1coc(N2CCC(C(=O)N3N=CC[C@H]3c3ccccc3)CC2)n1` [Example 65, (S)-ethyl 2-(4-(5-phenyl-4,5-dihydro-1H-pyrazole-1-carbonyl)piperidin-1-yl)oxazole-4-carboxylate] had an IC50 of 1 to 31.6 nM.

With `NC(=O)c1coc(N2CCC(C(=O)N3N=CC[C@H]3c3ccccc3)CC2)n1` [Example 136, (S)-2-(4-(5-phenyl-4,5-dihydro-1H-pyrazole-1-carbonyl)piperidin-1-yl)oxazole-4-carboxamide], the IC50 was 1 to 31.6 nM.

With `N#Cc1cccc([C@@H]2CC=NN2C(=O)C2CCN(c3ccn4nccc4n3)CC2)c1` [Example 62, (S)-3-(1-(1-(pyrazolo[1,5-a]pyrimidin-5-yl)piperidine-4-carbonyl)-4,5-dihydro-1H-pyrazol-5-yl)benzonitrile], the IC50 is 1 to 31.6 nM.

Consider `NC(=O)c1cnc(N2CCC(C(=O)N3N=CC[C@H]3c3ccccc3)CC2)cn1` [Example 63, (S)-5-(4-(5-phenyl-4,5-dihydro-1H-pyrazole-1-carbonyl)piperidin-1-yl)pyrazine-2-carboxamide], for which the IC50 is 1 to 31.6 nM.

Take `O=C(C1CCN(c2ncc(F)c(OCc3nn[nH]n3)n2)CC1)N1N=CC[C@H]1c1ccccc1` [Example 154, (S)-(1-(4-((2H-tetrazol-5-yl)methoxy)-5-fluoropyrimidin-2-yl)piperidin-4-yl)(5-phenyl-4,5-dihydro-1H-pyrazol-1-yl)methanone]: the IC50 was 1 to 31.6 nM and 1 to 10 nM.

With `O=C(C1CCN(c2nccc(-c3nn[nH]n3)n2)CC1)N1N=CC[C@H]1c1ccccc1` [Example 148, (S)-(1-(4-(2H-tetrazol-5-yl)pyrimidin-2-yl)piperidin-4-yl)(5-phenyl-4,5-dihydro-1H-pyrazol-1-yl)methanone], the IC50 is 1 to 31.6 nM and 1 to 10 nM.

In turn, `O=C(C1CCN(c2nc(=O)c3cn[nH]c3[nH]2)CC1)N1N=CC[C@H]1c1ccccc1` [Example 37, (S)-6-(4-(5-phenyl-4,5-dihydro-1H-pyrazole-1-carbonyl)piperidin-1-yl)-1H-pyrazolo[3,4-d]pyrimidin-4(7H)-one] had an IC50 of 1 to 31.6 nM.

Turning to `COc1cc(N2CCC(C(=O)N3N=CC[C@H]3c3cncc(F)c3)CC2)ncn1` [Example 113, (S)-(5-(5-fluoropyridin-3-yl)-4,5-dihydro-1H-pyrazol-1-yl)(1-(6-methoxypyrimidin-4-yl)piperidin-4-yl)methanone], the IC50 is 1 to 31.6 nM.
